The text below walks through data of patent publication US20230192661A1, “1, 4, 5, 6-TETRAHYDROPYRIMIDINE-2-AMINE DERIVATIVE” (UBE Corporation, priority 2020, published 2023).

pIC50: −log10 of the molar value.

Data set [1] is described as follows: Transcellular transport test using Caco2 cell. To be noted: human, Caco-2; Caco2 monolayer, A-to-B, 10 μM compound, pH 7.4, 90 minutes. In kind it is in vitro ADME. Here is the method: Caco2 cells (purchased from ATCC) were cultured in DMEM medium (Thermo Fisher Scientific, Inc., 11965) containing 10% FBS (Thermo Fisher Scientific, Inc., 10082) and 1% penicillin/streptomycin/amphotericin B (Thermo Fisher Scientific, Inc., 15240). A transcellular transport test was carried out in accordance with MultiScreen Caco2 Drug Transport Assembly in a 96-well system (Application Note AN1727EN, MultiScreen Caco-2 Assay System, Merck) by partially modifying it. The Caco2 cells were inoculated at a cell density of 4×10^4 cells/well onto a micropore polycarbonate insert of a 96-well plate (Merck, Millcell-96 culture insert plate 0.4 μm pore size, well membrane area=0.11 cm^2, PSHT004S5) and cultured for 20 to 22 days, and the resulting monolayer was used in the transcellular transport test. The medium of the inoculated cells was replaced with a fresh one every 3 to 4 days.
Apical-to-basolateral (A-to-B) transport in the Caco2 cell monolayer membrane was performed by using HBSS (Thermo Fisher Scientific, Inc., 14025) medium (pH=7.4) containing 20 mM HEPES (Thermo Fisher Scientific, Inc., 15630), and adding HEPES-containing HBSS medium containing 10 μM compound (a 10 mM solution of the compound in DMSO was added at a 1000-fold dilution; final DMSO concentration: 0.1%) at 75 μL/well to the apical side and HEPES-containing HBSS medium supplemented with no compound at 250 μL/well to the basolateral side, followed by culture at 37° C. for 90 minutes. After culture, a 100 μL aliquot was collected from the basolateral side, and the concentration of a permeated compound was measured by LC-MS/MS under measurement conditions mentioned later. Papp (apparent permeability; cm/sec) was calculated from the determined concentration. Papp was determined according to the expression given below by calculating the slope (dA/dt; nmol/sec) of a straight line drawn between two points 0 minutes and zero amount of the compound in a graph plotted with an assay time (90 min) on the abscissa against the amount of the compound in the solution on the permeated side on the ordinate. As for an assay concentration, the concentration in the compound in the HEPES-containing HBSS medium containing the added compound was measured by UV-HPLC under measurement conditions mentioned later.
Papp (cm/sec)=C0×S×(dA/dt)
C0: assay concentration, S: plate membrane area=0.11 cm^2

For a further data set, the target named is T1, αvβ1 (UniProt G3HZ55+P06756).
T1 construct: expressed in transfected cells; host or cells: CHO cells deficient in α5 gene, transfected with αv gene
T1 sequence (P06756 31-889 limits assumed): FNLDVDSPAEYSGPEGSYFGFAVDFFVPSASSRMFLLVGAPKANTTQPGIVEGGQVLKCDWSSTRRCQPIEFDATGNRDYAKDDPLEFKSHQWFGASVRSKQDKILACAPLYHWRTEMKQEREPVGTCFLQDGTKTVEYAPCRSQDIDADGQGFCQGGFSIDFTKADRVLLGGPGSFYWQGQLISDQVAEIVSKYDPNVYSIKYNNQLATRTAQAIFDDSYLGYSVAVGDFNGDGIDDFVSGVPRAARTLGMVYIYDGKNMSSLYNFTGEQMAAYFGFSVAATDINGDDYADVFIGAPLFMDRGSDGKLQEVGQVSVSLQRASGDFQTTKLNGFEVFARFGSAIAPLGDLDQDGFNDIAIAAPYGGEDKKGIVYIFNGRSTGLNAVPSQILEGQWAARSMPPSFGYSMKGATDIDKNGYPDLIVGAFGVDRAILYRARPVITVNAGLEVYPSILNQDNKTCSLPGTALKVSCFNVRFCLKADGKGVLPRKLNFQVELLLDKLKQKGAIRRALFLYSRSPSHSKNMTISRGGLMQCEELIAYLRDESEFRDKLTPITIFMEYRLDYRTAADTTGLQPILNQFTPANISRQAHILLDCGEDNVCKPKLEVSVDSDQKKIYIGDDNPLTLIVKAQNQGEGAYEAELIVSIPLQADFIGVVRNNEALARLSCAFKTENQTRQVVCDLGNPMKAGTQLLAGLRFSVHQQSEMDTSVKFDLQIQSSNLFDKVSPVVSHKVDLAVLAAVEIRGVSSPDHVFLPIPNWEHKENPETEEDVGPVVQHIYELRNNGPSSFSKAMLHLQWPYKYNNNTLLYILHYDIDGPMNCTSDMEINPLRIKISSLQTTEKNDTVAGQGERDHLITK
T1 sequence (P06756 891-1048 limits assumed): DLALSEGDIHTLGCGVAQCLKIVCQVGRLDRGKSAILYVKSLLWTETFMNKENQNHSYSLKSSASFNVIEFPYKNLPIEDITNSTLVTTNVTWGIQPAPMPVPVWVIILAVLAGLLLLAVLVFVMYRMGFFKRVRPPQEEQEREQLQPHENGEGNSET
T1 sequence (G3HZ55 21-798): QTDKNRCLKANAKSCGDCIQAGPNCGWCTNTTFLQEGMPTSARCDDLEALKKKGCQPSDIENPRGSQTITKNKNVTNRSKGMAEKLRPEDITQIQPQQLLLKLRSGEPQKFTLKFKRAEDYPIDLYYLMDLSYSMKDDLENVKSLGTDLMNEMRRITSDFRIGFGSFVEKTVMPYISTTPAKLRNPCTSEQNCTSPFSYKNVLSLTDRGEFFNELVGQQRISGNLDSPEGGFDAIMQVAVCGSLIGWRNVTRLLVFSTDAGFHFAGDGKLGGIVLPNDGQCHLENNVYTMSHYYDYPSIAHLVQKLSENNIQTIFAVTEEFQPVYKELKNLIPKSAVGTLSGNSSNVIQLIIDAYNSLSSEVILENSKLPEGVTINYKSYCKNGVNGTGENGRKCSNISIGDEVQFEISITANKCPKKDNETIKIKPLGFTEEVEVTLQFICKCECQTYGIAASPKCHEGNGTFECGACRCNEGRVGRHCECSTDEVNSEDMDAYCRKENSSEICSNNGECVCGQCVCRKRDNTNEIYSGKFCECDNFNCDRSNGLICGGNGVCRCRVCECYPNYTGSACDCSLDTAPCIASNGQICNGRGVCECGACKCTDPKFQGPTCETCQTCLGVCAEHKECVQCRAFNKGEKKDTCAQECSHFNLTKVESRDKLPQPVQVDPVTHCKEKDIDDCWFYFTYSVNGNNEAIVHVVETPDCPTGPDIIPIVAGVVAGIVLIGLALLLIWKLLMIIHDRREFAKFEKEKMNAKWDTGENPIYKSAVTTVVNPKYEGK
Description: αvβ1 cell adhesion inhibition test (αv-transfected CHO cells on human fibronectin). The format is cell-based. To be noted: human fibronectin coating, 1 mM MnCl2, 1 hour, read-out: IC50 (rate of inhibition of cell adhesion, αvβ1). Here is the method:
Test Example 1 was performed by partially modifying the method of Reed et al. (Sci Transl Med., 7 (288), 288ra79, 2015).
Human fibronectin (manufactured by Sigma-Aldrich Co. LLC, F0895) was prepared at 1.25 μg/mL with phosphate buffered saline (PBS), dispensed at 100 μL/well to a 96-well plate, and left standing overnight. The plate was washed with Hanks' balanced salt solution (HBSS), then subjected to blocking treatment with Dulbecco's modified Eagle medium (DMEM) containing 1% bovine serum-derived albumin (BSA) (FUJIFILM Wako Pure Chemical Corp., for cell culture, 017-22231), and used as a coated plate in the adhesion test.
αv-transfected cells (CHO cells deficient in α5 gene and transfected with αv gene) cultured in Ham's F-12 medium (FUJIFILM Wako Pure Chemical Corp., 087-08335) containing 10% fetal bovine serum (FBS), 1% penicillin/streptomycin/amphotericin B (manufactured by Thermo Fisher Scientific, Inc., 15240), 1 mM GlutaMAX Supplement (manufactured by Thermo Fisher Scientific, Inc., 35050), and 400 μg/mL hygromycin B (FUJIFILM Wako Pure Chemical Corp., 080-07683) were recovered and suspended in DMEM containing 1 mM MnCl2 (manufactured by Sigma-Aldrich Co. LLC, M1787) to prepare a cell suspension. A test compound dissolved in DMSO was added thereto.
The cell suspension of 1×10^6 cells/mL containing the test compound was added at 100 μL/well to the coated plate and left standing for 1 hour in a 5% CO2 incubator (37° C.). One hour later, the supernatant was removed, and the plate was washed with HBSS. The cells that adhered to each well in the plate were stained with crystal violet, and the cells were lysed, followed by absorbance measurement. Inhibition without substrate coating was defined as 100% inhibition, and inhibition when DMSO was added instead of the test compound was defined as 0% inhibition. The rate of inhibition of cell adhesion by the test compound was calculated according to the following expression.
Rate of inhibition of cell adhesion (%)=[1−{(Absorbance in the case of adding the test compound)−(Absorbance without substrate coating)}/{(Absorbance in the case of adding DMSO)−(Absorbance without substrate coating)}]×100
An IC50 value was calculated from the rate of inhibition of cell adhesion by the test compound. A: IC50<3 nM, B: 3 nM≤IC50<10 nM, C: 10 nM≤IC50<30 nM, D: 30 nM≤IC50<100 nM, or E: IC50≥100 nM.

As to `O=C(O)C[C@H](NC(=O)CNC(=O)c1cc(NC2=NCC(F)CN2)c2cn[nH]c2c1)c1cc(Cl)cc(Cl)c1` (stereo partly drawn) [Example 17-(b), (3S)-3-(3,5-dichlorophenyl)-3-(2-(4-((5-fluoro-1,4,5,6-tetrahydropyrimidin-2-yl)amino)-1H-indazole-6-carboxamido)acetamido)propanoic acid], in data set [1], the apical-to-basolateral permeability (Papp A→B) (in general, how fast a substance crosses the layer from the apical side) at 90 min, 10 μM was more than 1 ×10⁻⁶ cm/s. In addition, the pIC50 (in general, the negative decadic logarithm of the IC50, by convention in mol/L) on αvβ1 is more than 8.52.

In data set [1], `O=C(O)C[C@H](NC(=O)CNC(=O)c1cc(NC2=NCC(F)CN2)c2c(F)n[nH]c2c1)c1cc(Cl)cc(C(F)(F)F)c1` (stereo partly drawn) [Example 48-(b), (3S)-3-(3-chloro-5-(trifluoromethyl)phenyl)-3-(2-(3-fluoro-4-((5-fluoro-1,4,5,6-tetrahydropyrimidin-2-yl)amino)-1H-indazole-6-carboxamido)acetamido) propanoic acid] had a Papp A→B at 90 min, 10 μM of more than 1 ×10⁻⁶ cm/s. The negative-log IC50 (pIC50) on αvβ1 is 8.00 to 8.52.

Take `O=C(O)C[C@H](NC(=O)CNC(=O)c1cc(NC2=NCC(F)CN2)c2cn[nH]c2c1)c1cccc(Br)c1` (stereo partly drawn) [Example 42-(b), (3S)-3-(3-bromophenyl)-3-(2-(4-((5-fluoro-1,4,5,6-tetrahydropyrimidin-2-yl)amino)-1H-indazole-6-carboxamido)acetamido)propanoic acid]: the Papp A→B at 90 min, 10 μM in data set [1] is more than 1 ×10⁻⁶ cm/s. In addition, at αvβ1, the pIC50 is 8.00 to 8.52.

For the compound `O=C(O)C[C@H](NC(=O)CNC(=O)c1cc(NC2=NCC(F)CN2)c2cn[nH]c2c1)c1cc(Cl)ccc1F` (stereo partly drawn) [Example 22-(b), (3S)-3-(5-chloro-2-fluorophenyl)-3-(2-(4-((5-fluoro-1,4,5,6-tetrahydropyrimidin-2-yl)amino)-1H-indazole-6-carboxamido)acetamido)propanoic acid], the Papp A→B at 90 min, 10 μM in data set [1] was more than 1 ×10⁻⁶ cm/s. On αvβ1, the pIC50 is 7.52 to 8.00.

In the case of `O=C(O)C[C@H](NC(=O)CNC(=O)c1cc(NC2=NCC(F)CN2)c2cn[nH]c2c1)c1cccc(C(F)F)c1` (stereo partly drawn) [Example 38-(b), (3S)-3-(3-(difluoromethyl)phenyl)-3-(2-(4-((5-fluoro-1,4,5,6-tetrahydropyrimidin-2-yl)amino)-1H-indazole-6-carboxamido)acetamido)propanoic acid], the Papp A→B at 90 min, 10 μM in data set [1] is more than 1 ×10⁻⁶ cm/s. In addition, at αvβ1, the pIC50 is more than 8.52.

On to `O=C(O)C[C@H](NC(=O)CNC(=O)c1cc(NC2=NCC(F)CN2)c2cn[nH]c2c1)c1cccc(OC(F)(F)F)c1` (stereo partly drawn) [Example 36-(b), (3S)-3-(2-(4-((5-fluoro-1,4,5,6-tetrahydropyrimidin-2-yl)amino)-1H-indazole-6-carboxamido)acetamido)-3-(3-(trifluoromethoxy)phenyl)propanoic acid], for which the Papp A→B at 90 min, 10 μM in data set [1] was more than 1 ×10⁻⁶ cm/s. Further, the pIC50 at αvβ1 was 8.00 to 8.52.

For `O=C(O)C[C@H](NC(=O)CNC(=O)c1cc(NC2=NCC(F)CN2)c2cn[nH]c2c1)c1cc(OC(F)F)cc(OC(F)F)c1` (stereo partly drawn) [Example 30-(b), (3S)-3-(3,5-bis(difluoromethoxy)phenyl)-3-(2-(4-((5-fluoro-1,4,5,6-tetrahydropyrimidin-2-yl)amino)-1H-indazole-6-carboxamido)acetamido)propanoic acid], in data set [1], the apparent permeability from apical to basolateral (Papp A→B) at 90 min, 10 μM is 0.5 to 1 ×10⁻⁶ cm/s. The pIC50 on αvβ1 is more than 8.52.

Take `O=C(O)C[C@H](NC(=O)CNC(=O)c1cc(NC2=NCC(O)CN2)c2cn[nH]c2c1)c1cc(Cl)cc(C(F)(F)F)c1` (stereo partly drawn) [Example 50-(b), (3S)-3-(3-chloro-5-(trifluoromethyl)phenyl)-3-(2-(4-((5-hydroxy-1,4,5,6-tetrahydropyrimidin-2-yl)amino)-1H-indazole-6-carboxamido)acetamido)propanoic acid]: in data set [1], the Papp A→B at 90 min, 10 μM is more than 1 ×10⁻⁶ cm/s. Further, on αvβ1, the pIC50 is 7.52 to 8.00.

Take `O=C(O)C[C@H](NC(=O)CNC(=O)c1cc(NC2=NCC(F)CN2)cc2[nH]ncc12)c1cc(Cl)cc(C(F)(F)F)c1` (stereo partly drawn) [Example 52-(b), (3S)-3-(3-chloro-5-(trifluoromethyl)phenyl)-3-(2-(6-((5-fluoro-1,4,5,6-tetrahydropyrimidin-2-yl)amino)-1H-indazole-4-carboxamido)acetamido)propanoic acid]: in data set [1], the Papp A→B at 90 min, 10 μM lay within 0.1 to 0.5 ×10⁻⁶ cm/s. Besides, on αvβ1, the pIC50 was more than 8.52.

`O=C(O)C[C@H](NC(=O)CNC(=O)c1cc(NC2=NCC(F)CN2)c2cn[nH]c2c1)c1ccc(F)c(C(F)(F)F)c1` (stereo partly drawn) [Example 13-(b), (3S)-3-(2-(4-((5-fluoro-1,4,5,6-tetrahydropyrimidin-2-yl)amino)-1H-indazole-6-carboxamido)acetamido)-3-(4-fluoro-3-(trifluoromethyl)phenyl)propanoic acid]: the Papp A→B at 90 min, 10 μM in data set [1] is more than 1 ×10⁻⁶ cm/s. Further, at αvβ1, the negative-log IC50 (pIC50) was more than 8.52.

Regarding `O=C(O)C[C@H](NC(=O)CNC(=O)c1cc(NC2=NCC(F)CN2)c2cn[nH]c2c1)c1cc(Cl)cc(C(F)(F)F)c1` (stereo partly drawn) [Example 1-(b), (3S)-3-(3-chloro-5-(trifluoromethyl)phenyl)-3-(2-(4-((5-fluoro-1,4,5,6-tetrahydropyrimidin-2-yl)amino)-1H-indazole-6-carboxamido)acetamido)propanoic acid], the Papp A→B at 90 min, 10 μM in data set [1] is more than 1 ×10⁻⁶ cm/s. Besides, on αvβ1, the pIC50 is more than 8.52.

`O=C(O)C[C@H](NC(=O)CNC(=O)c1cc(NC2=NCC(F)CN2)c2cn[nH]c2c1)c1cc(OC(F)F)ccc1F` (stereo partly drawn) [Example 28-(b), (3S)-3-(5-(difluoromethoxy)-2-fluorophenyl)-3-(2-(4-((5-fluoro-1,4,5,6-tetrahydropyrimidin-2-yl)amino)-1H-indazole-6-carboxamido)acetamido)propanoic acid]: in data set [1], the Papp A→B at 90 min, 10 μM is more than 1 ×10⁻⁶ cm/s. The pIC50 on αvβ1 is more than 8.52.

The compound `O=C(O)C[C@H](NC(=O)CNC(=O)c1cc(NC2=NCC(F)CN2)c2cn[nH]c2c1)c1cc(C(F)(F)F)ccc1Cl` (stereo partly drawn) [Example 12-(b), (3S)-3-(2-chloro-5-(trifluoromethyl)phenyl)-3-(2-(4-((5-fluoro-1,4,5,6-tetrahydropyrimidin-2-yl)amino)-1H-indazole-6-carboxamido)acetamido)propanoic acid] came in with a Papp A→B at 90 min, 10 μM in data set [1] of more than 1 ×10⁻⁶ cm/s. Also, at αvβ1, the pIC50 is 8.00 to 8.52.

`Cc1cc([C@H](CC(=O)O)NC(=O)CNC(=O)c2cc(NC3=NCC(F)CN3)c3cn[nH]c3c2)cc(C(F)(F)F)c1` (stereo partly drawn) [Example 4-(b), (3S)-3-(2-(4-((5-fluoro-1,4,5,6-tetrahydropyrimidin-2-yl)amino)-1H-indazole-6-carboxamido)acetamido)-3-(3-methyl-5-(trifluoromethyl)phenyl)propanoic acid] gave a Papp A→B at 90 min, 10 μM in data set [1] of more than 1 ×10⁻⁶ cm/s. For the same compound, the pIC50 at αvβ1 was 8.00 to 8.52.
